Literature values, collected in US9463220B2, “Method for inducing twin calving” (China Agricultural University, priority 2013, dated 2016).

Test system: cow
Settings: small doses of FSH with estrus synchronization 13 days before and aspiration of more than 3 large follicles on day 7

follicle-stimulating hormone [FSH]
rate of 2-3 ovulations: 90%
